From paper PMC4478171, “Synthesis, characterization, and preclinical validation of a PET radiopharmaceutical for interrogating Aβ (β-amyloid) plaques in Alzheimer’s disease” (EJNMMI Research, 2015)
Entries after “also recorded” stand apart in the source; their conditions may differ.

Tests used:
[1] = target: T1, Aβ1-42 fibrils (Homo sapiens, UniProt P05067); assay: Saturation radioligand binding to preformed Aβ1-42 fibrils
T1 construct: synthetic Aβ1-42 peptide (1 mg) (Bachem, Torrance, CA); purchased Bachem, Torrance, CA; host or cells: chemical synthesis
Description: Aβ1-42 fibrils were obtained using literature procedures described earlier. Briefly, synthetic Aβ1-42 peptide (1 mg) (Bachem, Torrance, CA) was initially dissolved in DMSO (50 μL) and diluted with the addition of mQ-H2O (925 μL). Finally, 1 M Tris-HCl (25 μL; pH 7.6) was added to the peptide solution to obtain a final peptide concentration (222 μM; 1 mg/mL). Thereafter, the peptide solution was incubated for 30 h at 37°C with shaking at 1,000 rpm in an Eppendorf Thermomixer. The fibril formation was confirmed by ThioT fluorescence. For determining the concentration of fibrils, the fibril reaction mix was centrifuged at 15,000×g for 15 min to separate the fibrils from the monomer. The concentration of Aβ monomer in the supernatant was determined in a BCA protein assay. […] The exact hot:cold (^18F-7B:7A) ratio was measured in each experiment by counting an aliquot of a sample (2 μL) of the radioligand preparation in a scintillation counter. Binding of ^18F-7B to human brain homogenates was assessed by incubating samples of insoluble fraction (5-μg insoluble protein/well) from AD subjects, with increasing concentrations of ^18F-7B (1.5 to 100 nM). Nonspecific binding was determined in parallel experiments utilizing 7A (2.5 μM) for Aβ1-42 fibrils and 7A (5 μM) for AD tissue as a competitor. […] Bmax values were calculated in pmol/gram wet weight of brain tissue.

[2] = Biodistribution studies in normal mice; format: in vivo, FVB mice; conditions: for Blood uptake / Bone uptake / Brain uptake / Kidney uptake / Liver uptake: FVB mice, n = 3
Description: All animal procedures were approved by the Washington University Animal Studies Committee. Pharmacokinetics of ^18F-7B in brain and other critical tissues of normal male 12-week-old FVB (wild type (WT); 28 to 36 g) mice were determined as previously described. Briefly, ^18F-7B (740 kBq) was dissolved in 100-μL saline containing 10% ethanol. All animals were anesthetized by isofluorane inhalation and injected with radiotracer ^18F-7B (740 kBq, 100 μL) via bolus injection through a tail vein. Animals were sacrificed by cervical dislocation under anesthesia at 5, 30, 60, and 120 min after injection (n = 3 each). Blood samples were obtained by cardiac puncture, organs then harvested rapidly, and all tissue samples analyzed for γ-activity. Data are expressed as the percentage injected dose (%ID) per gram of tissue (tissue kBq (injected kBq)^−1 (g tissue)^−1 × 100).

[3] = target: Aβ plaques (Homo sapiens, UniProt P05067); assay: MicroPET/CT imaging in APP/PS1 versus WT mice; format: in vivo
Description: Following anesthesia, the mice were secured with their heads in the center of the field of view, fixed in the scanner in a prone head-first position (HFP), and placed in an acrylic-imaging tray. MicroPET imaging was performed using Inveon PET/CT scanner (Siemens Medical Solutions, Malvern, PA, USA) following intravenous tail-vein injection of HPLC-purified [^18F]7B (12.95 MBq; 28 μL; 35% ethanol in saline) employing the catheter system in a slow bolus, followed by flushing with isotonic saline solution. PET dynamic data acquisition was performed over 75 min starting immediately following injection of the tracer. The emission data were normalized and corrected for attenuation, scatter, and decay. Attenuation correction was obtained using the co-registered CT data. The image volume consisted of 256 × 256 × 159 voxels, with a size of 0.39 × 0.39 × 0.8 mm^3 per voxel for the Inveon scanner. For anatomical visualization, PET images were co-registered with CT images from an Inveon PET/CT scanner. For analysis, brain uptake (Bq/L) was normalized to injected dose and weight of animals. […] Additionally, SUV values in time-activity curves were normalized to the average activity measured in those regions between 1 to 2 min post-injection. All image data were processed and analyzed using Inveon Research Workspace 4.1 software (Siemens, Malvern, PA, USA). […]

[4] = Metabolite analysis in human serum (radio-HPLC, radio-TLC); format: in vitro ADME; conditions: 37°C up to 60 min, radio-HPLC and radio-TLC
Description: Human serum (Sigma-Aldrich, St. Louis, MO, USA) was thawed. Serum (100 μL) was taken, diluted with saline to 10%, and incubated with HPLC-purified fraction of ^18F-7B (100 μCi each) at 37°C for 30 and 60 min. Samples were periodically withdrawn and analyzed on radio-HPLC using eluent mixture described above and radio-TLC using an eluent mixture of ethanol/saline in a ratio of 90:10 (to allow mobility of parental compound and other hydrophobic metabolites off the surface to analyze protein binding) and 10:90 (to analyze hydrophilic metabolites).

[5] = Lipophilicity (log P); format: physicochemical; conditions: octanol/water

Aβ plaques, sequence (P05067 672-711 limits assumed): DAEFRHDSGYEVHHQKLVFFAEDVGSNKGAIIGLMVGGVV
T1 sequence (P05067 672-713 limits assumed): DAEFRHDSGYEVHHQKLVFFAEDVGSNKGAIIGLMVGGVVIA

Bmax [1]: 6 pmol/nmol Aβ
Kd ([1]; one-site model): 61 nM
Blood uptake ([2]; 5 min post i.v.): 3.18 ± 0.23 %ID/g
Bone uptake ([2]; 5 min post i.v.): 1.61 ± 0.20 %ID/g
Brain uptake ([2]; 5 min post i.v.): 7.23 ± 0.47 %ID/g
Kidney uptake ([2]; 5 min post i.v.): 6.72 ± 0.44 %ID/g
Liver uptake ([2]; 5 min post i.v.): 16.22 ± 1.43 %ID/g
Blood uptake ([2]; 30 min post i.v.): 2.51 ± 0.09 %ID/g
Bone uptake ([2]; 30 min post i.v.): 2.08 ± 0.13 %ID/g
Brain uptake ([2]; 30 min post i.v.): 2.27 ± 0.13 %ID/g
Kidney uptake ([2]; 30 min post i.v.): 2.83 ± 0.09 %ID/g
Liver uptake ([2]; 30 min post i.v.): 5.21 ± 0.08 %ID/g
Blood uptake ([2]; 60 min post i.v.): 2.40 ± 0.17 %ID/g
Bone uptake ([2]; 60 min post i.v.): 3.41 ± 0.37 %ID/g
Brain uptake ([2]; 60 min post i.v.): 2.00 ± 0.15 %ID/g
Kidney uptake ([2]; 60 min post i.v.): 2.20 ± 0.07 %ID/g
Liver uptake ([2]; 60 min post i.v.): 3.44 ± 0.20 %ID/g
Blood uptake ([2]; 120 min post i.v.): 1.86 ± 0.05 %ID/g
Bone uptake ([2]; 120 min post i.v.): 5.27 ± 0.34 %ID/g
Brain uptake ([2]; 120 min post i.v.): 1.55 ± 0.01 %ID/g
Kidney uptake ([2]; 120 min post i.v.): 1.59 ± 0.03 %ID/g
Liver uptake ([2]; 120 min post i.v.): 2.73 ± 0.16 %ID/g
brain uptake clearance ratio 5 min/120 min ([2]; %ID/g brain, normal mice): 4.66
defluorination indicated by bone accumulation ([2]; as a function of time over 2 h, normal mice): slight defluorination
retention in brain/frontal cortex of transgenic mice compared with WT ([3]; APP/PS1 vs age-matched WT mice, 22.6 months, dynamic PET 1 to 75 min, i.v.): significantly higher retention
logP [5]: 1.3
SMILES: CN(C)c1ccc(/C=C/c2nc3ccc(OCC[18F])cc3s2)cn1 [^18F-7B, (E)-5-(2-(6-(2-[^18F]-fluoroethoxy)-benzo[d]thiazol-2-yl)vinyl)-N,N-dimethylpyridin-2-amine]
retention in extracerebral regions ([3]; nasal and eye cavities, microPET/CT): considerable retention in extracerebral regions
stability in human serum [4]: presence of parental species in human serum; also recorded: presence of primarily the parental compound
